Laboratory results taken from patent publication US7332601B2, “CCI-779 derivatives and methods of making same” (Wyeth, priority 2004, dated 2008).

Columns and labels:
[1] = test system: human tumor xenografts of diverse histological types; conditions: nude mice, cited from earlier work
[2] = test system: histologically diverse tumor cells; conditions: cited from earlier work
[3] = biological target: T1, CYP450 2C8 (Homo sapiens, UniProt P10632); assay: Generation of CCI-779 derivatives by CYP450 isozyme incubation; assay type: in vitro ADME
T1 sequence (P10632 1-490): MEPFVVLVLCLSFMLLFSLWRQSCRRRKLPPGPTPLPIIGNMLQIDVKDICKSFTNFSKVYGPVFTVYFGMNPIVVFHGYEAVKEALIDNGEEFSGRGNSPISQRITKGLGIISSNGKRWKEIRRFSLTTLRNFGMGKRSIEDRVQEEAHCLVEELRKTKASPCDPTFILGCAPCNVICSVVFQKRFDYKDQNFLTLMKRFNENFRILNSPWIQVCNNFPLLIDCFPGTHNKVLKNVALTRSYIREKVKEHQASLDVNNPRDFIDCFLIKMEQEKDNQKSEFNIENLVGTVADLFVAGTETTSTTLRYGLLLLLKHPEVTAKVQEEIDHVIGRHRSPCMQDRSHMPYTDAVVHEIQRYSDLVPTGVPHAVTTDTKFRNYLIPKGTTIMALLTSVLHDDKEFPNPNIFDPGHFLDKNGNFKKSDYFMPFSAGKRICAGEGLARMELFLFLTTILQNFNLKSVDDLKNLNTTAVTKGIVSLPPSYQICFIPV

[4] = test system: breast cancer lines; conditions: one of two breast cancer lines studied in vivo; cited from earlier work
[5] = biological target: T2, CYP450 2A6 (Homo sapiens, UniProt P11509); assay: Generation of CCI-779 derivatives by CYP450 isozyme incubation; assay type: in vitro ADME
T2 sequence (P11509 1-494): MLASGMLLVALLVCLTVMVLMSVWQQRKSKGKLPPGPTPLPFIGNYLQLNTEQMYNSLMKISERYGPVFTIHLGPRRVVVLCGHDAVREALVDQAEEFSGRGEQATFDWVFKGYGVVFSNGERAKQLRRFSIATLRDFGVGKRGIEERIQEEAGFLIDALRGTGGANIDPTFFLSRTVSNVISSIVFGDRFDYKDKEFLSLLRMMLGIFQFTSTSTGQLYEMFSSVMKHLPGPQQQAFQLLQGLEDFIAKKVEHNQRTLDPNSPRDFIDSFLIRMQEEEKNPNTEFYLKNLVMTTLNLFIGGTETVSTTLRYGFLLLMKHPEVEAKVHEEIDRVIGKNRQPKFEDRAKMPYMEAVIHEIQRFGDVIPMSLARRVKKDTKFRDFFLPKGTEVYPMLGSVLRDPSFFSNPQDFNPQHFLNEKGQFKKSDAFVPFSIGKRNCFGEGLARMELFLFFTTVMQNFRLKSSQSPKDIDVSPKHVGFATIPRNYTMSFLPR

[6] = test system: orthotopic glioma model; conditions: nude mice; cited from earlier work
[7] = biological target: CYP450 2C9 (Homo sapiens, UniProt P11712); assay: Generation of CCI-779 derivatives by CYP450 isozyme incubation; assay type: in vitro ADME
[8] = test system: human pancreatic tumors; conditions: several human pancreatic tumors in nude mice; cited from earlier work
[9] = biological target: T3, CYP3A4 (Homo sapiens, UniProt P08684); assay: Generation of CCI-779 derivatives by CYP450 isozyme incubation; assay type: in vitro ADME
T3 construct: host or cells: E. coli (membrane preparation)
Protocol: The invention provides a method of generating specific derivatives of CCI-779 by incubating CCI-779 with membranes of recombinant E. coli cells expressing human cytochrome P450-3A4 isozymes.
In order to generate the specific hydroxylation derivatives of the invention, CCI-779 and CYP3A4 may be incubated in the presence of a reducing agent, such as NADH or NADPH. Suitably, CCI-779 and the enzyme can be present in a ratio of 300:1 to 500:1, and desirably about 330:1 CCI-779 to enzyme. In the examples below, these components are mixed to a final concentration of 0.1 mM CCI-779, 300 nM 3A4 enzyme, and 2 mM NADPH regenerate system. However, other concentrations can be readily used.
To a 5L reactor containing CCI-779 514 mg (0.5 mmol), MgCl2 (0.4 M×100 ml), NADPH generating system (NADP sodium salt: 75 mg×100 mL, D-glucose-6-phospate: 60 mg/mL×100 mL; glucose-6-phosphate dehydrogenase: 25 units/mL×100 mL), and E. coli-expressed CYP-3A4 membrane (1500 nmol) was added potassium phosphate buffer solution to 5L. The mixture solution was incubated at 37° C. under oxygen atmosphere (sparging O2 at 0.3 L/min) with agitation of 125 rpm for one hour. After one-hour reaction, the reaction solution was cooled down to 25° C. on an ice bath and extracted with an equal volume of ethyl acetate twice. […]

[10] = biological target: CYP450 2E1 (Homo sapiens, UniProt P05181); assay: as above; assay type: in vitro ADME
[11] = biological target: CYP450 2C19 (Homo sapiens, UniProt P33261); assay: as above; assay type: in vitro ADME
[12] = test system: human glioblastoma cell line; conditions: human glioblastoma cell line in vitro; cited from earlier work

T3 sequence (P08684 whole entry): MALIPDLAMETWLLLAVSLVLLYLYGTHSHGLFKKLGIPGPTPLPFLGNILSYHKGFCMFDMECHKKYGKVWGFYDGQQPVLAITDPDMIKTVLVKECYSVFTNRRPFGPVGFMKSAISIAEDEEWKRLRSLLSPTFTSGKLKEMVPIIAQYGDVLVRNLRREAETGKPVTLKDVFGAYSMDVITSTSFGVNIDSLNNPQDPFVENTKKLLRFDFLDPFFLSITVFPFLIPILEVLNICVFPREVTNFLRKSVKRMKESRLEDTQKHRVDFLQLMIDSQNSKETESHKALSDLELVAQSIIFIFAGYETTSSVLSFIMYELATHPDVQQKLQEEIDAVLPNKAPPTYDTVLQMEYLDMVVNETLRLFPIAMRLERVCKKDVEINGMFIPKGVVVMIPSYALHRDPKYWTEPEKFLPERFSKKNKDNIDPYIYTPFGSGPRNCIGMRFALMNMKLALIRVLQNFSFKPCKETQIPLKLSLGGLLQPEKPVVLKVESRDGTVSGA
Chain of CYP450 2C19 (P33261 whole entry): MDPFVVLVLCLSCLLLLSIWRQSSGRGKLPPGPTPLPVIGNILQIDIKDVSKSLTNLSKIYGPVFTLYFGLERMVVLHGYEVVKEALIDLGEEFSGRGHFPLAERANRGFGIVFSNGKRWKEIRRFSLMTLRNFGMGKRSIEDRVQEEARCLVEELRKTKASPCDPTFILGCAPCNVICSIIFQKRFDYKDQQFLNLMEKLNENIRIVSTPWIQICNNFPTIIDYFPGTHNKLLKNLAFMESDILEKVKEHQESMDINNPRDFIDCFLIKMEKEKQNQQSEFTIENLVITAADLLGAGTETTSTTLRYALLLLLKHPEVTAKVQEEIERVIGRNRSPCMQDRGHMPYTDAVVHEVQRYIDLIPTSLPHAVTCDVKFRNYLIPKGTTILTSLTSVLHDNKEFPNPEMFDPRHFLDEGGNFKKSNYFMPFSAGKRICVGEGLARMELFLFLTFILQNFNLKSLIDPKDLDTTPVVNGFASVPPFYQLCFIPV
Chain of CYP450 2E1 (P05181 whole entry): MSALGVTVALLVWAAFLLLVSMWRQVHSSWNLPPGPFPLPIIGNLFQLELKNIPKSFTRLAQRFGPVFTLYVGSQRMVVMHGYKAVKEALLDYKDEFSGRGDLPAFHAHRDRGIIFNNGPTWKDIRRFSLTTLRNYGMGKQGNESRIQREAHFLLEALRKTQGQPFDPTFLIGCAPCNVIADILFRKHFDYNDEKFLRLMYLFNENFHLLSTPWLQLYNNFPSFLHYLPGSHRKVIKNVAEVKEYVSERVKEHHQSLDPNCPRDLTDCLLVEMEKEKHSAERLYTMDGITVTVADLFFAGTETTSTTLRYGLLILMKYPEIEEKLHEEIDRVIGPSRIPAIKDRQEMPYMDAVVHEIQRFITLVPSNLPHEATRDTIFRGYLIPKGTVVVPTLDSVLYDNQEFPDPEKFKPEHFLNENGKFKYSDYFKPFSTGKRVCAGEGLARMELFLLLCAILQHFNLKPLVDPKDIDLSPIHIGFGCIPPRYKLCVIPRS
Chain of CYP450 2C9 (P11712 whole entry): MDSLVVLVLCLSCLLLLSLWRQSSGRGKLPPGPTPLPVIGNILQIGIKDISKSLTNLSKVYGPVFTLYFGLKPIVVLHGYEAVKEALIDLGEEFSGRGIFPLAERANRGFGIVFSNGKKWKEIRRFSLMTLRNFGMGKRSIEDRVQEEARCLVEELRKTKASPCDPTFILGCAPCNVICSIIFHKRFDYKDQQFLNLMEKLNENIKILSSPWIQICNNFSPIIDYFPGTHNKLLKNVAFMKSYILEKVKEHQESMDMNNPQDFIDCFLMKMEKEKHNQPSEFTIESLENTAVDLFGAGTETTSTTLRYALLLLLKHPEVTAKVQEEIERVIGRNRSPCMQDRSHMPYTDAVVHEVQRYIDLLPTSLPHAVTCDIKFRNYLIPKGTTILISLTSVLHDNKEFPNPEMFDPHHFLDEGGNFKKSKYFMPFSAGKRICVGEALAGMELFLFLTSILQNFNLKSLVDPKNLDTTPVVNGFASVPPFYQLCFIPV

- generation of CCI-779 derivatives by the enzyme [3]: not able to generate these derivatives
- generation of CCI-779 derivatives by the enzyme [5]: not able to generate these derivatives
- generation of CCI-779 derivatives by the enzyme [7]: not able to generate these derivatives
- generation of CCI-779 derivatives by the enzyme [10]: not able to generate these derivatives
- generation of CCI-779 derivatives by the enzyme [11]: not able to generate these derivatives
SMILES: CO[C@H]1CC2CC[C@@H](C)[C@@](O)(O2)C(=O)C(=O)N2CCCC[C@H]2C(=O)O[C@H]([C@H](C)C[C@@H]2CC[C@@H](OC(=O)C(C)(CO)CO)[C@H](OC)C2)CC(=O)[C@H](C)/C=C(\C)[C@@H](O)[C@@H](OC)C(=O)[C@H](C)C[C@H](C)/C=C/C=C/C=C/1C [CCI-779, Rapamycin 42-ester with 2,2-bis(hydroxymethyl)propionic acid]
- sensitivity of gliomas ([1]; gliomas): particularly sensitive
- activity against human tumor xenografts [1]: has activity
- sensitivity of tumor lines ([2]; CNS cancer, leukemia (T-cell), breast cancer, prostate cancer and melanoma lines): among the most sensitive
- inhibition of growth of tumor cells ([2]; in vitro, a number of histologically diverse tumor cells): inhibit the growth
- cell cycle effect ([2]; in vitro): arrested cells in the G1 phase
- tumor growth [4]: inhibited
- activity in orthotopic glioma model [6]: active
- tumor growth [8]: inhibited
- generation of CCI-779 derivatives by the enzyme [9]: the only member of this family of enzymes to specifically generate CCI-779 derivatives
- growth factor (platelet-derived)-induced stimulation [12]: markedly suppressed
